Source: ChEMBL document CHEMBL1201862, “PubChem BioAssay data set” (2004)
Calls of active or inactive are those of the source.

Legend:
[1] = T. cruzi growth inhibition in host cells, dose response, cell-based, plate reader, dry powder, set 2 (AID 652275); assay type: functional
[2] = target: Fructose-bisphosphate aldolase (Mycobacterium tuberculosis, UniProt P9WQA3); experiment: Fluorescence-based biochemical high throughput dose response assay for inhibitors of the fructose-bisphosphate aldolase (FBA) of M. tuberculosis.; assay type: functional
[3] = general mammalian cell viability loss – inhibitor set, cherry-pick, set 2, cytotoxicity control for miR-122 modulator project, dose response (AID 720697); assay type: functional, cell-based
[4] = target: Mu-type opioid receptor (Homo sapiens, UniProt P35372); assay type: functional, cell-based;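 also: U2OS cells with beta-arrestin recruitment to OPRM1 by beta-gal complementation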
[5] = target: 5-hydroxytryptamine receptor 2A (Mus musculus, UniProt P35363); assay type: functional, cell-based;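 also: CHO-K1 cells with tagged receptor and beta-arrestin; agonist potency measured as compound-induced activation of the receptor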
[6] = test system: HEK293; experiment: viability loss in HEK293T cells – cell-based, ATP luminescence, cherry-pick samples, cytotoxicity control, dose response (AID 687005); assay type: functional; conditions: Homo sapiens;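 also: cells exposed to compound for 48 hours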
[7] = test system: HeLa; experiment: viability loss in HeLa cells – cell-based, ATP luminescence, cherry-pick samples, cytotoxicity control, dose response (AID 687004); assay type: functional; conditions: Homo sapiens
[8] = HEK293 Cytotoxicity Assay Measured in Cell-Based System Using Plate Reader - 7071-01_Inhibitor_Dose_CherryPick_Activity_Set2.; assay type: functional
[9] = general cell-killing toxicity readout – plate reader, dry powder samples, cytotoxicity control for PAX8 inhibitor project, dose response (AID 743021); assay type: functional, cell-based
[10] = target: Paired box protein Pax-8 (Homo sapiens, UniProt Q06710); experiment: PAX8 transcriptional activity inhibition in RMG-I – RMG-I cells, luciferase, cherry-pick, dose response (AID 687027); assay type: functional, cell-based;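 also: luciferase reporter driven by Pax8 target thyroperoxidase promoter measured by SteadyGlo luminescence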
[11] = target: Galanin receptor type 3 (Homo sapiens, UniProt O60755); experiment: Fluorescence-based cell-based primary high throughput dose response assay to identify antagonists of the Galanin Receptor 3 (GalR3).; assay type: functional
[12] = target: Beta-galactosidase (Escherichia coli, UniProt Q8VNN2); experiment: Dose response counterscreen for EBI2 assay utilizing the enzyme, b-galactosidase.; assay type: functional
[13] = target: T1, Beta-2 adrenergic receptor (Homo sapiens, UniProt P07550); experiment: Dose response for HTS for Beta-2AR agonists via FAP method from Powderset1.; assay type: functional
[14] = target: T1, Beta-2 adrenergic receptor; experiment: ADRB2 activation measured by internalization – cell-based, FAP fluorogen, flow cytometry, cherry pick 1, dose response (AID 588763); assay type: functional

T1 sequence (P07550 whole entry): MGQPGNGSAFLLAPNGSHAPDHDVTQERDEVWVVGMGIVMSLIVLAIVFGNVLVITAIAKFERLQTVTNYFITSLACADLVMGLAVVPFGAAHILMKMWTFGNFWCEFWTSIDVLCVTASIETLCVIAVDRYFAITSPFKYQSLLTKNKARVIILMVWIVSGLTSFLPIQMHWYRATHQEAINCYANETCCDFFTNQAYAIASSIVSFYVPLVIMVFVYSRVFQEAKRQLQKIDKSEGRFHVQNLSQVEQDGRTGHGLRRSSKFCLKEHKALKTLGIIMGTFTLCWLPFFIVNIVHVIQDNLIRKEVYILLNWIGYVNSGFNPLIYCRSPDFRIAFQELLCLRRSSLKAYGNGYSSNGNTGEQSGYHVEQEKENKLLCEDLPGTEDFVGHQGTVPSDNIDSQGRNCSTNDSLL
Sequence of Fructose-bisphosphate aldolase (P9WQA3 whole entry): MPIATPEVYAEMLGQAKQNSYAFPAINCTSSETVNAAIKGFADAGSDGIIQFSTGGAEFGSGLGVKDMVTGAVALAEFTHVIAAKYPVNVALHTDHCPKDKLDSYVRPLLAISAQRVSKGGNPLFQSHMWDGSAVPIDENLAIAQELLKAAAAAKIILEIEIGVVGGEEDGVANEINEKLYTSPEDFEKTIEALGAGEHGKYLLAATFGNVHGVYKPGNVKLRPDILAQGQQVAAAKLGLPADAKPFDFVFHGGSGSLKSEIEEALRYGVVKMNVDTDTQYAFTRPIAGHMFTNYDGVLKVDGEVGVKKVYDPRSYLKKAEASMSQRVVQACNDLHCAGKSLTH
Sequence of Galanin receptor type 3 (O60755 whole entry): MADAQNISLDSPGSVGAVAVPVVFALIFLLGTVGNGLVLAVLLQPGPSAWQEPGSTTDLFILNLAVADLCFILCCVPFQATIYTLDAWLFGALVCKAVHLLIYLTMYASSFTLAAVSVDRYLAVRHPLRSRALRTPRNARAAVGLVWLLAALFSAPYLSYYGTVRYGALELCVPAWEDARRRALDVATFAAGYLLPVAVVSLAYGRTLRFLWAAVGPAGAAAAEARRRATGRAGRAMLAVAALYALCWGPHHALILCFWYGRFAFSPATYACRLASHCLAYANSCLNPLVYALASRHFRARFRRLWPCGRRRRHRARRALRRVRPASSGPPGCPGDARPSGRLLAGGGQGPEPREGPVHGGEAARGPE
Sequence of Beta-galactosidase (Q8VNN2 whole entry): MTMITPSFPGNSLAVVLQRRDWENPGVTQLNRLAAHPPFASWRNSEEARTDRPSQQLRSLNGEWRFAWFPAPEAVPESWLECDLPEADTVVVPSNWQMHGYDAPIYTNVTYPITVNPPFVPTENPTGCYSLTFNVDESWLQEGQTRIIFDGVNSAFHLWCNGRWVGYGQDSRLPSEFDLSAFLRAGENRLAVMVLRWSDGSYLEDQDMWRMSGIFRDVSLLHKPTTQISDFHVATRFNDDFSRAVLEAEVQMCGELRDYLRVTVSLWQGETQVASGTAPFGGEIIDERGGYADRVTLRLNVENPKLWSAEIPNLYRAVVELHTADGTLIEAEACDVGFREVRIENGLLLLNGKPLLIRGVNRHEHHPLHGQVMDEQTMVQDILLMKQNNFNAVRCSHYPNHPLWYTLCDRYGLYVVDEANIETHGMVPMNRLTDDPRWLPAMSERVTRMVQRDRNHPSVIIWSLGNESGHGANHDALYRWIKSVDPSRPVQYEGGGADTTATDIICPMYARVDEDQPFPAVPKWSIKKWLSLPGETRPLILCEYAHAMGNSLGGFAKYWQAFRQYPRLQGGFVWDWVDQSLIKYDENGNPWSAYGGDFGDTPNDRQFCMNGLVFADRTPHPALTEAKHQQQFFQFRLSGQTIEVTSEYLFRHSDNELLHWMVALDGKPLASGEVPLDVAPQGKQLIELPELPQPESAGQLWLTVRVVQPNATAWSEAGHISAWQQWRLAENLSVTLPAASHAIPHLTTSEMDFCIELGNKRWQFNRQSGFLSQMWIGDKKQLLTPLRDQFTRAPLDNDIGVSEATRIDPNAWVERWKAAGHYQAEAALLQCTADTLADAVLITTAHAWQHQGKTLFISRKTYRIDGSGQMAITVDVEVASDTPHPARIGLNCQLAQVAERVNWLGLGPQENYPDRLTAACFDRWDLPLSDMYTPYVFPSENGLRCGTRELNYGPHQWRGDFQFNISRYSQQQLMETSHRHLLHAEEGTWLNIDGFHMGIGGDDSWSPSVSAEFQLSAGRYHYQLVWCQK
Sequence of Mu-type opioid receptor (P35372 whole entry): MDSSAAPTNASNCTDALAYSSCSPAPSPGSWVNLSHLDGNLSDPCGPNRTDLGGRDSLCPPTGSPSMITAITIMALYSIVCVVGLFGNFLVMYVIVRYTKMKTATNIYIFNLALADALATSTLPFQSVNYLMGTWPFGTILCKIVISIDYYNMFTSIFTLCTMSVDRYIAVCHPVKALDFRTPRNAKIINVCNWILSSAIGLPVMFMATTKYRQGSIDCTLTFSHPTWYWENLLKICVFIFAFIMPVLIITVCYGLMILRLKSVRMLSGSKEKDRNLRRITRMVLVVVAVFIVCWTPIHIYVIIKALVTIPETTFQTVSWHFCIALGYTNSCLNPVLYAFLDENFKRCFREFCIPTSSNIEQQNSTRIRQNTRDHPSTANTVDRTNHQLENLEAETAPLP
Sequence of Paired box protein Pax-8 (Q06710 whole entry): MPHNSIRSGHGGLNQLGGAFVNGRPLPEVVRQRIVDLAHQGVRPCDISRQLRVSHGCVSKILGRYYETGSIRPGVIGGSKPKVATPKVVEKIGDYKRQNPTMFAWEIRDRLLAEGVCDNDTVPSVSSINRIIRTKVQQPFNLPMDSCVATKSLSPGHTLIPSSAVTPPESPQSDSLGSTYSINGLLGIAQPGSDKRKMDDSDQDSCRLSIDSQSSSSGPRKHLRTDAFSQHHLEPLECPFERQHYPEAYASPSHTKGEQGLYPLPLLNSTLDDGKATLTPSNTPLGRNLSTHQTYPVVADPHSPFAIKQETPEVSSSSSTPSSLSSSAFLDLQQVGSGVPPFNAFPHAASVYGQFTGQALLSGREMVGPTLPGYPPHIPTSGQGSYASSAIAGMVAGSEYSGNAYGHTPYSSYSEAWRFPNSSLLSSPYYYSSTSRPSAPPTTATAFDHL
Sequence of 5-hydroxytryptamine receptor 2A (P35363 whole entry): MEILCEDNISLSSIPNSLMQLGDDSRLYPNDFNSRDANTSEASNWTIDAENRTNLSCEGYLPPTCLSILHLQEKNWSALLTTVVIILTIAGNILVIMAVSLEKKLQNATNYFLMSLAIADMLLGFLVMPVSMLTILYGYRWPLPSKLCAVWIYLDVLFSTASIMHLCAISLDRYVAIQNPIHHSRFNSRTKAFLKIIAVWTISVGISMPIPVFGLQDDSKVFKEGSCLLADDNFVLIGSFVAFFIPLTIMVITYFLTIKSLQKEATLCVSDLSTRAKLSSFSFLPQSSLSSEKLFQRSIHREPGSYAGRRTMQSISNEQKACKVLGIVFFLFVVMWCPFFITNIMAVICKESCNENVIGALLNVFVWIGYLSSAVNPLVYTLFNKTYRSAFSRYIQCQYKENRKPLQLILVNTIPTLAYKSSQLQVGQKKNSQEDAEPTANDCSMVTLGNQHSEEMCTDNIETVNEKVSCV

## CN1CCCCN2[C@@H](CO)[C@H](c3ccc(Br)cc3)[C@@H]2C1
[1]
  AC50: 16 µM (active)

## CCc1c(C)c2ccc(OCC(N)=O)cc2oc1=O
[2]
  IC50: > 0.37 µM (active)

## CCCC(=O)Nc1ccc2c(c1)C(=O)N(C)[C@@H]1CC[C@H](CC(=O)NCC(F)(F)F)O[C@H]1CO2
[3]
  AC50: 2.15 µM (active)

## O=C(Cn1cnc2ccccc2c1=O)N1CCN(Cc2ccc3c(c2)OCO3)CC1
[4]
  EC50: 92.5 µM (inactive)
[5]
  EC50: 16.4 µM (inactive)

## C[C@@H]1CN([C@H](C)CO)C(=O)c2c(c3ccccc3n2C)-c2ccccc2CO[C@H]1CN(C)S(=O)(=O)c1ccc(Cl)cc1
[6]
  AC50: 23.1 µM (active)
[7]
  AC50: > 47 µM (inactive)
[8]
  AC50: 23.1 µM (active)

## NC(=O)c1cn(C2OC(CO)C(O)C2O)c2ncnc(N)c12 (centres undefined)
[9]
  AC50: 0.591 µM (active)
[10]
  AC50: < 0.26 µM (active)
[11]
  IC50: 1.28 µM (active)

## O=C(/C=C/c1ccc(Cl)cc1)N1CCN(c2c(Cl)cccc2[N+](=O)[O-])CC1
[12]
  IC50: > 80 µM (inactive)

## CN(CC(=O)N1CCN(c2ccccn2)CC1)S(=O)(=O)c1ccccc1
[13]
  EC50: 0.0435 µM (active)
[14]
  EC50: 0.274 µM (active)
